Results: patent US10787452B2 (Vertex Pharmaceuticals Incorporated, priority 2012, dated 2020)

What follows are compounds tested on HCT116 colorectal cancer cells (assay: Cisplatin sensitization assay (96 h cell viability MTS)). Conditions: 96 h MTS, compound plus Cisplatin.
Type: cell-based
Summary of the method: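 Viability was measured by MTS after 96 h co-exposure of HCT116 colorectal cells to a full-matrix dilution grid of compound and cisplatin (2-fold steps, highest final concentration 10 μM, added together). Plates were kept at 37 °C in 5% CO2, and the MTS reagent was incubated for 1 h before reading.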
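Further: compound concentration needed to lower the Cisplatin-alone IC50 by a set fold.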

Row | Compound | Cisplatin Sensitization Assay
1 | CN1CCN(c2c(NC(=O)c3c(N)nn4cc(F)cnc34)cncc2C2CC2)CC1 [I-N-5, 2-amino-N-(5-cyclopropyl-4-(4-methylpiperazin-1-yl)pyridin-3-yl)-6-fluoropyrazolo[1,5-a]pyrimidine-3-carboxamide] | ++ (Compounds with a Cisplatin sensitization value >0.02 μM but <0.2 μM are marked with “++.”)
2 | CCOc1ccncc1NC(=O)c1c(N)nn2cc(F)cnc12 [I-O-14, 2-amino-N-(4-ethoxypyridin-3-yl)-6-fluoropyrazolo[1,5-a]pyrimidine-3-carboxamide] | +++ (Compounds with a Cisplatin sensitization value of <0.02 μM are marked with “+++.”)
3 | Nc1nn2cc(F)cnc2c1C(=O)Nc1cncc(F)c1N1CCN(S(=O)(=O)C2CC2)CC1 [I-N-159, 2-amino-N-(4-(4-(cyclopropylsulfonyl)piperazin-1-yl)-5-fluoropyridin-3-yl)-6-fluoropyrazolo[1,5-a]pyrimidine-3-carboxamide] | +++ (Compounds with a Cisplatin sensitization value of <0.02 μM are marked with “+++.”)
4 | Nc1nn2cc(F)cnc2c1C(=O)Nc1cncc(F)c1N1CCC(C(=O)NC2COC2)CC1 [I-G-37, 2-amino-6-fluoro-N-(5-fluoro-4-(4-(oxetan-3-ylcarbamoyl)piperidin-1-yl)pyridin-3-yl)pyrazolo[1,5-a]pyrimidine-3-carboxamide] | ++ (Compounds with a Cisplatin sensitization value >0.02 μM but <0.2 μM are marked with “++.”)
5 | CS(=O)(=O)C1CN(C(=O)C2CCN(c3ccncc3NC(=O)c3c(N)nn4cc(F)cnc34)CC2)C1 [I-G-89, 2-amino-6-fluoro-N-(4-(4-(3-(methylsulfonyl)azetidine-1-carbonyl)piperidin-1-yl)pyridin-3-yl)pyrazolo[1,5-a]pyrimidine-3-carboxamide] | + (Compounds with a Cisplatin sensitization value >0.2 μM but <5 μM are marked with “+.”)
6 | Nc1nn2cc(F)cnc2c1C(=O)Nc1cnccc1-c1ccccn1 [I-C-60, N-([2,4′-bipyridin]-3′-yl)-2-amino-6-fluoropyrazolo[1,5-a]pyrimidine-3-carboxamide] | ++ (Compounds with a Cisplatin sensitization value >0.02 μM but <0.2 μM are marked with “++.”)
7 | Nc1nn2cc(F)cnc2c1C(=O)Nc1cnccc1N1CCS(=O)(=O)CC1 [I-N-210, 2-amino-N-(4-(1,1-dioxidothiomorpholino)pyridin-3-yl)-6-fluoropyrazolo[1,5-a]pyrimidine-3-carboxamide] | +++ (Compounds with a Cisplatin sensitization value of <0.02 μM are marked with “+++.”)
8 | Nc1nn2cc(F)cnc2c1C(=O)Nc1cncc(F)c1N1CCN(S(=O)(=O)C2CCOCC2)CC1 [I-N-158, 2-amino-6-fluoro-N-(5-fluoro-4-(4-((tetrahydro-2H-pyran-4-yl)sulfonyl)piperazin-1-yl)pyridin-3-yl)pyrazolo[1,5-a]pyrimidine-3-carboxamide] | +++ (Compounds with a Cisplatin sensitization value of <0.02 μM are marked with “+++.”)
9 | Nc1nn2cc(F)cnc2c1C(=O)Nc1cncc(F)c1N1CCN2CCOC[C@H]2C1 [I-N-135, (R)-2-amino-6-fluoro-N-(5-fluoro-4-(hexahydropyrazino[2,1-c][1,4]oxazin-8(1H)-yl)pyridin-3-yl)pyrazolo[1,5-a]pyrimidine-3-carboxamide] | +++ (Compounds with a Cisplatin sensitization value of <0.02 μM are marked with “+++.”)
10 | Nc1nn2cc(F)cnc2c1C(=O)Nc1cnccc1-n1ccnc1C1CC1 [I-N-202, 2-amino-N-(4-(2-cyclopropyl-1H-imidazol-1-yl)pyridin-3-yl)-6-fluoropyrazolo[1,5-a]pyrimidine-3-carboxamide] | +++ (Compounds with a Cisplatin sensitization value of <0.02 μM are marked with “+++.”)
11 | Nc1nn2cc(F)cnc2c1C(=O)Nc1cnccc1-c1ccc(C(=O)N2CCN3CCC2CC3)cc1 [I-C-48, N-(4-(4-(1,4-diazabicyclo[3.2.2]nonane-4-carbonyl)phenyl)pyridin-3-yl)-2-amino-6-fluoropyrazolo[1,5-a]pyrimidine-3-carboxamide] | +++ (Compounds with a Cisplatin sensitization value of <0.02 μM are marked with “+++.”)
12 | CN1CCN(c2ccncc2NC(=O)c2c(N)nn3cc(F)cnc23)CC12CCOCC2 [I-N-133, 2-amino-6-fluoro-N-(4-(1-methyl-9-oxa-1,4-diazaspiro[5.5]undecan-4-yl)pyridin-3-yl)pyrazolo[1,5-a]pyrimidine-3-carboxamide] | ++ (Compounds with a Cisplatin sensitization value >0.02 μM but <0.2 μM are marked with “++.”)
13 | Nc1nn2cc(F)cnc2c1C(=O)Nc1cncc(F)c1N1CCN(C2COC2)CC1 [I-N-13, 2-amino-6-fluoro-N-(5-fluoro-4-(4-(oxetan-3-yl)piperazin-1-yl)pyridin-3-yl)pyrazolo[1,5-a]pyrimidine-3-carboxamide] | +++ (Compounds with a Cisplatin sensitization value of <0.02 μM are marked with “+++.”)
14 | CN1CCN(C(=O)C2CCN(c3c(F)cncc3NC(=O)c3c(N)nn4cc(F)cnc34)CC2)C2CC21 (stereo not shown) [I-G-65, 2-amino-6-fluoro-N-(5-fluoro-4-(4-(5-methyl-2,5-diazabicyclo[4.1.0]heptane-2-carbonyl)piperidin-1-yl)pyridin-3-yl)pyrazolo[1,5-a]pyrimidine-3-carboxamide] | +++ (Compounds with a Cisplatin sensitization value of <0.02 μM are marked with “+++.”)
15 | Nc1nn2cc(F)cnc2c1C(=O)Nc1cnccc1OC1CN2CCC1CC2 (racemic) [I-O-6, (R,S)-2-amino-6-fluoro-N-(4-(quinuclidin-3-yloxy)pyridin-3-yl)pyrazolo[1,5-a]pyrimidine-3-carboxamide] | +++ (Compounds with a Cisplatin sensitization value of <0.02 μM are marked with “+++.”)
16 | CN1CCC[C@@H]1C(=O)N1CCN(c2ccncc2NC(=O)c2c(N)nn3cc(F)cnc23)CC1 [I-N-199, (R)-2-amino-6-fluoro-N-(4-(4-(1-methylpyrrolidine-2-carbonyl)piperazin-1-yl)pyridin-3-yl)pyrazolo[1,5-a]pyrimidine-3-carboxamide] | +++ (Compounds with a Cisplatin sensitization value of <0.02 μM are marked with “+++.”)
17 | CCOc1ccncc1NC(=O)c1c(N)nn2cc(CC#N)cnc12 [I-O-28, 2-amino-6-(cyanomethyl)-N-(4-ethoxypyridin-3-yl)pyrazolo[1,5-a]pyrimidine-3-carboxamide] | +++ (Compounds with a Cisplatin sensitization value of <0.02 μM are marked with “+++.”)
18 | Cc1cncc(NC(=O)c2c(N)nn3cc(F)cnc23)c1N1CCC(C(=O)N2CCNCC2)CC1 [I-G-56, 2-amino-6-fluoro-N-(5-methyl-4-(4-(piperazine-1-carbonyl)piperidin-1-yl)pyridin-3-yl)pyrazolo[1,5-a]pyrimidine-3-carboxamide] | +++ (Compounds with a Cisplatin sensitization value of <0.02 μM are marked with “+++.”)
19 | CN1CCN(C(=O)N2CCN(c3c(F)cncc3NC(=O)c3c(N)nn4cc(F)cnc34)CC2)CC1 [I-N-140, 2-amino-6-fluoro-N-(5-fluoro-4-(4-(4-methylpiperazine-1-carbonyl)piperazin-1-yl)pyridin-3-yl)pyrazolo[1,5-a]pyrimidine-3-carboxamide] | +++ (Compounds with a Cisplatin sensitization value of <0.02 μM are marked with “+++.”)
